Measurements reported in patent US20240182445A1 (ONO PHARMACEUTICAL CO., LTD., priority 2019, published 2024).

biological target: T1, human TREK-1 (Homo sapiens, UniProt O95069); assay: TREK-1 Thallium (Tl+) flux assay, Method 1; format: cell-based; details: TREK-1 Thallium (Tl+) flux assay, Method 1
T1 construct: expressed in transfected cells
T1 sequence (O95069 1-426): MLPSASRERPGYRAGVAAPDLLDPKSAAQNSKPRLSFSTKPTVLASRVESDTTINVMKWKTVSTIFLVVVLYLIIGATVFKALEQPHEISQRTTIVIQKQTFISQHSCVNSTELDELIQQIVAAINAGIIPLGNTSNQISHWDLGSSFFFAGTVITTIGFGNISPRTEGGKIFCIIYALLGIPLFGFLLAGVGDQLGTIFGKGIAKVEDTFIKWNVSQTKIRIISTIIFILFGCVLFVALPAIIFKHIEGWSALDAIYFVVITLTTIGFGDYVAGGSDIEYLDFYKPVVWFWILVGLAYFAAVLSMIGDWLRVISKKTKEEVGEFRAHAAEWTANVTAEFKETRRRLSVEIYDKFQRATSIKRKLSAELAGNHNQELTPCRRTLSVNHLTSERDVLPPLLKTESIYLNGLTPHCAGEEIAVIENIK
In short: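 Readout: Thallos fluorescence ratio, taken 25 s post-thallium relative to the pre-thallium baseline average, then converted to % inhibition. Cells were CHO-K1 stably expressing human TREK-1, dye-loaded and exposed to test compound (vehicle 0.3% DMSO) for 10 min prior to thallium stimulation.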

| SMILES | IC50 [nM] |
| --- | --- |
| CC(=O)N1CCC(n2ncc(Cl)c2C(=O)Nc2ncc(-c3cc(F)c(Cl)c(F)c3)cc2C)CC1 [Compound 426, 1-(1-acetylpiperidin-4-yl)-4-chloro-N-(5-(4-chloro-3,5-difluorophenyl)-3-methylpyridin-2-yl)-1H-pyrazole-5-carboxamide] | 5120 |
| COc1c(F)cc(-c2cnc(NC(=O)c3c(Cl)cnn3C3CCN(C(C)=O)CC3)c(C)c2)cc1F [Compound 428, 1-(1-acetylpiperidin-4-yl)-4-chloro-N-(5-(3,5-difluoro-4-methoxyphenyl)-3-methylpyridin-2-yl)-1H-pyrazole-5-carboxamide] | 5310 |
| Cc1cc(-c2cnn(-c3ccc(F)cc3)c2)cnc1NC(=O)c1c(Cl)cnn1C1CC(C#N)C1 (stereo not shown) [Compound 394, 4-chloro-1-(3-cyanocyclobutyl)-N-(5-(1-(4-fluorophenyl)-1H-pyrazol-4-yl)-3-methylpyridin-2-yl)-1H-pyrazole-5-carboxamide] | 1340 |
| Cc1cc(-c2cnn(-c3ccccc3F)c2)cnc1NC(=O)c1c(Cl)cnn1C1CCN(C(=O)OC(C)(C)C)CC1 [Compound 436, tert-butyl 4-(4-chloro-5-((5-(1-(2-fluorophenyl)-1H-pyrazol-4-yl)-3-methylpyridin-2-yl)carbamoyl)-1H-pyrazol-1-yl)piperidine-1-carboxylate] | 9300 |

same assay, conditions: TREK-1 Thallium (Tl+) flux assay; no *^12 (Method 2) mark on these rows

| SMILES | IC50 [nM] |
| --- | --- |
| CC(=O)N1CCCC(Cn2ncc(Cl)c2C(=O)Nc2ncc(C#Cc3ccc(F)cc3)cc2C)C1 (stereo not shown) [Compound 248, 1-((1-acetylpiperidin-3-yl)methyl)-4-chloro-N-(5-((4-fluorophenyl)ethynyl)-3-methylpyridin-2-yl)-1H-pyrazole-5-carboxamide] | 390 |
| Cc1cc(C#Cc2ccccc2)cnc1NC(=O)c1c(Cl)cnn1C1CCN(C(=O)C(C)(C)C)CC1 [Compound 220, 4-chloro-N-(3-methyl-5-(phenylethynyl)pyridin-2-yl)-1-(1-pivaloylpiperidin-4-yl)-1H-pyrazole-5-carboxamide] | 340 |
| O=C(Nc1c(F)cc(C#Cc2ccccc2)cc1F)c1c(Cl)cnn1[C@H]1CCOC1 [Compound 199, (S)-4-chloro-N-(2,6-difluoro-4-(phenylethnyl)phenyl)-1-(tetrahydrofuran-3-yl)-1H-pyrazole-5-carboxamide] | 310 |
| CC(C)(C)OC(=O)N1CCC(CCn2ncc(Cl)c2C(=O)Nc2ncc(C#Cc3ccccc3)cc2F)CC1 [Compound 290, tert-butyl 4-(2-(4-chloro-5-((3-fluoro-5-(phenylethynyl)pyridin-2-yl)carbamoyl)-1H-pyrazol-1-yl)ethyl)piperidine-1-carboxylate] | 510 |

Second part, the compound after the results:

| IC50 [nM] | SMILES |
| --- | --- |
| 770 | CC(C)(C)OC(=O)N1CCC2(CC1)CC(n1ncc(Cl)c1C(=O)Nc1ncc(C#Cc3ccccc3)cc1F)C2 [Compound 346, tert-butyl 2-(4-chloro-5-((3-fluoro-5-(phenylethynyl)pyridin-2-yl)carbamoyl)-1H-pyrazol-1-yl)-7-azaspiro[3.5]nonane-7-carboxylate] |
| 810 | Cc1cc(C#Cc2cccc(F)c2)cnc1NC(=O)c1c(Cl)cnn1[C@H]1C[C@@H]2CN(C(=O)C(C)C)C[C@@H]2C1 [Compound 349, 4-chloro-N-{5-[(3-fluorophenyl)ethynyl]-3-methylpyridin-2-yl}-1-[(3aR,5s,6aS)-2-(2-methylpropanoyl)octahydrocyclopenta [c]pyrrol-5-yl]-1H-pyrazole-5-carboxamide] |
| 630 | Cc1cc(C#Cc2ccccc2)cnc1NC(=O)c1c(Cl)cnn1CCC1CCCO1 (stereo not shown) [Compound 321, 4-chloro-N-(3-methyl-5-(phenylethynyl)pyridin-2-yl)-1-(2-(tetrahydrofuran-2-yl)ethyl)-1H-pyrazole-5-carboxamide] |
| 580 | Cc1cc(C#Cc2ccccc2)cnc1NC(=O)c1c(Cl)cnn1[C@H]1CC[C@@H](NC(=O)OC(C)(C)C)CC1 [Compound 309, Tert-butyl (cis-4-(4-chloro-5-((3-methyl-5-(phenylethynyl)pyridin-2-yl)carbamoyl)-1H-pyrazol-1-yl)cyclohexyl)carbamate] |
| 1130 | Cc1ncc(Cn2ncc(Cl)c2C(=O)Nc2ncc(C#Cc3ccccc3)cc2C)s1 [Compound 374, 4-chloro-N-(3-methyl-5-(phenylethynyl)pyridin-2-yl)-1-((2-methylthiazol-5-yl)methyl)-1H-pyrazole-5-carboxamide] |
| 680 | COc1ncc(-c2cnc(NC(=O)c3c(Cl)cnn3C3CCN(C(=O)OC(C)(C)C)CC3)c(C)c2)cc1F [Compound 383, tert-butyl 4-(4-chloro-5-((5′-fluoro-6′-methoxy-5-methyl-[3,3′-bipyridin]-6-yl)carbamoyl)-1H-pyrazol-1-yl)piperidine-1-carboxylate] |
| 740 | COc1ccc(-c2cnc(NC(=O)c3c(Cl)cnn3C3CCN(C(=O)OC(C)(C)C)CC3)c(C)c2)cc1OC [Compound 384, tert-butyl 4-(4-chloro-5-((5-(3,4-dimethoxyphenyl)-3-methylpyridin-2-yl)carbamoyl)-1H-pyrazol-1-yl)piperidine-1-carboxylate] |
| 620 | Cc1cc(C#Cc2ccc(F)cc2)cnc1NC(=O)c1c(Cl)cnn1C[C@H]1CCCN(C(=O)C(C)C)C1 [Compound 320, (S)-4-chloro-N-(5-((4-fluorophenyl)ethynyl)-3-methylpyridin-2-yl)-1-((1-isobutyrylpiperidin-3-yl)methyl)-1H-pyrazole-5-carboxamide] |
| 1710 | CCN1CC(n2ncc(Cl)c2C(=O)Nc2ncc(C#Cc3ccccc3)cc2C)C1 [Compound 377, 4-chloro-1-(1-ethylazetidin-3-yl)-N-(3-methyl-5-(phenylethynyl)pyridin-2-yl)-1H-pyrazole-5-carboxamide] |
| 550 | Cc1cc(C#Cc2ccc(F)cc2)cnc1NC(=O)c1c(Cl)cnn1CC1(F)CCN(C(=O)C2CC2)CC1 [Compound 302, 4-chloro-1-((1-(cyclopropanecarbonyl)-4-fluoropiperidin-4-yl)methyl)-N-(5-((4-fluorophenyl)ethynyl)-3-methylpyridin-2-yl)-1H-pyrazole-5-carboxamide] |
| 520 | Cc1cc(C#Cc2ccc(F)cc2)cnc1NC(=O)c1c(Cl)cnn1C[C@@H]1CCN(C(=O)C(C)C)C[C@H]1F [Compound 293, 4-chloro-1-(((3S,4S)-3-fluoro-1-isobutyrylpiperidin-4-yl)methyl)-N-(5-((4-fluorophenyl)ethynyl)-3-methylpyridin-2-yl)-1H-pyrazole-5-carboxamide] |

same assay, conditions: TREK-1 Thallium (Tl+) flux assay; values without footnote *12 are Method 1

| SMILES | IC50 [nM] |
| --- | --- |
| CC(C)C(=O)N[C@H]1CC[C@H](n2ncc(Cl)c2C(=O)Nc2ncc(C#Cc3ccccc3)cc2F)CC1 [Compound 117] | 200 |
| Cc1cc(C#Cc2ccccc2)cnc1NC(=O)c1c(Cl)cnn1C1CCN(C(=O)CC(F)(F)F)CC1 [Compound 171, 4-chloro-N-(3-methyl-5-(phenylethynyl)pyridin-2-yl)-1-(1-(3,3,3-trifluoropropanoyl)piperidin-4-yl)-1H-pyrazole-5-carboxamide] | 270 |
| Cc1cc(C#Cc2ccc(F)cc2)cnc1NC(=O)c1c(Cl)cnn1C1CCN(C(=O)C(C)C)CC1 [Compound 151, 4-chloro-N-(5-((4-fluorophenyl)ethynyl)-3-methylpyridin-2-yl)-1-(1-isobutyrylpiperidin-4-yl)-1H-pyrazole-5-carboxamide] | 240 |
| Cc1cc(C#Cc2ccccc2)cnc1NC(=O)c1c(Cl)cnn1CC1CCN(C(=O)C(C)C)CC1 [Compound 53, 4-chloro-1-((1-isobutyrylpiperidin-4-yl)methyl)-N-(3-methyl-5-(phenylethnyl)pyridin-2-yl)-1H-pyrazole-5-carboxamide] | 140 |
| CC(=O)N1CCCC(Cn2ncc(Cl)c2C(=O)Nc2ncc(C#Cc3ccccc3)cc2F)C1 (stereo not shown) [Compound 177, 1-((1-acetylpiperidin-3-yl)methyl)-4-chloro-N-(3-fluoro-5-(phenylethynyl)pyridin-2-yl)-1H-pyrazole-5-carboxamide] | 270 |
| CC(=O)N1CC[C@@H](n2ncc(Cl)c2C(=O)Nc2ncc(C#Cc3ccccc3)cc2C)C[C@@H]1C (single isomer, unassigned) [Compound 86, 1-[(2S,4R)-1-acetyl-2-methylpiperidin-4-yl]-4-chloro-N-[3-methyl-5-(phenylethynyl)pyridin-2-yl]-1H-pyrazole-5-carboxamide or 1-[(2R,4S)-1-acetyl-2-methylpiperidin-4-yl]-4-chloro-N-[3-methyl-5-(phenylethynyl)pyridin-2-yl]-1H-pyrazole-5-carboxamide] | 170 |
| Cc1cc(C#Cc2ccccc2)cnc1NC(=O)c1c(Cl)cnn1C1CCN(C(=O)C(C)C)CC1 [Compound 169] | 270 |
| Cc1cc(C#Cc2ccccc2)cnc1NC(=O)c1c(Cl)cnn1C1CCN(S(C)(=O)=O)CC1 [Compound 163, 4-chloro-N-(3-methyl-5-(phenylethynyl)pyridin-2-yl)-1-(1-(methylsulfonyl)piperidin-4-yl)-1H-pyrazole-5-carboxamide] | 260 |
| Cc1cc(C#Cc2ccccc2)cnc1NC(=O)c1c(Cl)cnn1CC1CCN(C(=O)C2CC2)CC1 [Compound 52, 4-chloro-1-((1-(cyclopropanecarbonyl)piperidin-4-yl)methyl)-N-(3-methyl-5-(phenylethynyl)pyridin-2-yl)-1H-pyrazole-5-carboxamide] | 140 |
